Data on 88 compounds can be found in a melting point compilation (Tetko et al.; mined from patent text by program, amines drawn as free bases though some values may be those of a salt).

For the compound `O=C(NC1CN2CCC1CC2)c1cccc2nc(-c3ccc(F)cc3)oc12` (stereo not drawn), the melting point (in general, the temperature of the solid-liquid transition) fell in the range of 185 to 187 °C.

As to `CC(c1ccc(O)cc1)(c1ccc(O)cc1)c1ccc(C(C)(c2ccc(O)cc2)c2ccc(O)cc2)cc1`, the melting point worked out at 307 °C.

With `O=C(Nc1c[nH]nc1C(=O)NCCSc1ccccn1)c1ccccn1`, the melting point lay in the range of 162 to 163 °C.

For the compound `O=C(OCCCO)c1cc([N+](=O)[O-])cc([N+](=O)[O-])c1`, the melting point amounted to 76 °C.

Compound `CCCCc1nn(-c2cc(NC(=O)CC)ccc2Cl)c(=O)n1Cc1ccc(-c2ccccc2S(=O)(=O)NC(=O)c2c(F)cccc2Cl)cc1F` registered a melting point of 200 to 203 °C.

On to `CCN1CCC(O)(c2cccc(F)c2F)C1` (stereo not drawn), for which the melting point lay within 119 to 120 °C.

The compound `CN(CCO)Cc1cc(C(=O)c2ccccc2F)cc(C(C)(C)C)c1O` registered a melting point of 87 to 89 °C.

Compound `O=C(Nc1ccc(Cl)c(C(F)(F)F)c1)Oc1ccc2c(c1)CCCN2Cc1ccccc1` displayed a melting point of 151 °C.

Compound `CN1C(=O)[C@@](NC(=O)Nc2cccc(CNc3nnn[nH]3)c2)(C2CCCCC2)N=Cc2ccccc21` showed a melting point of 175 to 178 °C.

For the compound `Cc1c(C)c2c(c(C)c1O)CCC(C)(C(=O)N1CCC(c3ccc(N)cc3)CC1)O2` (stereo not drawn), the melting point is 153 to 154 °C.

`O=C(OCC(Cl)(Cl)Cl)N1CCC(=C2c3ccccc3Oc3ccccc32)CC1` showed a melting point of 132 to 134 °C.

`CCC(=O)NC(C)(C)C` came in with a melting point of 90 to 92 °C.

As for `CNC(=O)c1ccccc1CC(O)(CCN(C)C)c1ccccc1` (stereo not drawn), the melting point was found to be 140 °C.

In turn, `NC(=O)c1nc(-c2ccc(Cl)cc2Cl)c(-c2ccc(Cl)cc2)s1` had a melting point of 195 to 198 °C.

For the compound `CCCn1c(=O)c2c(nc(/C=C/c3cc(OC)c(OC)c(OC)c3)n2C)n(CCC)c1=O`, the melting point lay in the range of 168 to 169 °C.

Compound `O=C(NCc1cccnc1)c1ccc2n1Cc1ccccc1N(C(=O)c1ccc(-c3ccccc3CN3CCCC3)cc1)C2` registered a melting point of 210 to 212 °C.

In turn, `O=c1c2c(F)cccc2nc(C(S)c2ncnc3[nH]cnc23)n1-c1ccccc1Cl` (stereo not drawn) yielded a melting point of 223 to 224 °C.

Take `Cc1ccc(C(=O)NCc2ccncc2)cc1`: the melting point was found to be 227 °C.

Turning to `Cc1cc(C=O)ccc1C(=O)NCc1ccccn1`, the melting point lay in the range of 79.5 to 83 °C.

In turn, `Cc1nc(O)c(C)c(O)n1` had a melting point of 300 °C.

`CCN(C)c1nc2sc3c(NCc4ccncc4)ncnc3c2c2c1CCC(C)(C)C2` yielded a melting point of 207 °C.

Turning to `COc1cc(N)ccc1-c1ccccc1`, the melting point was found to be 56 °C.

As to `CCN1C(C)=CC(=O)CS1(=O)=O`, the melting point lay within 90 to 92 °C.

In turn, `CS(=O)(=O)c1ccc(-n2cnc3ccc(-c4nnc(CCc5cccc(C(F)(F)F)c5)o4)cc32)cc1` gave a melting point of 204 to 205 °C.

The compound `COC(=O)c1ccccc1NC(=O)CN1CCN(C(=O)c2ccc(OC)cc2)CC1` displayed a melting point of 168 to 169 °C.

Consider `Clc1c2ccccc2nc2occc12`, for which the melting point was 112 to 113 °C.

In turn, `COc1cccc(SSc2cccc(OC)c2S(N)(=O)=O)c1S(N)(=O)=O` displayed a melting point of 263 °C.

`O=Cc1c(Cl)nc2ccc(Cl)cn12` showed a melting point of 165 to 166 °C.

As for `Cc1ccnc2c(Oc3ccccc3[N+](=O)[O-])cccc12`, the melting point lay in the range of 98 to 99 °C.

`CC(=O)Oc1ccc(S(=O)(=O)ON=C2CCCc3ccccc32)cc1` had a melting point of 151 to 152 °C.

For the compound `COc1ccc2c(c1)/C(=C\CNC(=O)NC(C)(C)C)C(C)(C)CC2`, the melting point was in the range of 175 to 176 °C.

For the compound `COC(=O)c1c(OC)cc2oc(C)cc(=O)c2c1OC`, the melting point worked out at 188 °C.

Turning to `Cc1c(C(=O)OCc2ccccc2)sc2ccc3[nH]c4c(c3c12)CN(C)CC4`, the melting point amounted to 174 °C.

Consider `O=C(CNC(=O)c1ccc([N+](=O)[O-])c(I(=O)=O)c1)OCc1ccccc1`, for which the melting point lay in the range of 196 to 198 °C.

Regarding `CCc1cccc(C)c1CNc1cc(C(N)=O)cc2c1nc(C)n2C`, the melting point was in the range of 240 to 241 °C.

In turn, `CCC(=C(c1ccccc1)c1ccc(C=CC(N)=NO)cc1)c1ccccc1` had a melting point of 182 to 185 °C.

In the case of `CC1=C2c3c(cnc4cc(Cl)ccc34)NC2C(C)CN1` (stereo not drawn), the melting point is 188 to 190 °C.

For `NC(=O)NN=Cc1ccc(Oc2ccncc2)cc1`, the melting point was 212 to 213 °C.

In the case of `COC(=O)C(Cc1c[nH]c2ccccc12)NCOC(C)[Si](C)(C)C` (racemic), the melting point lay in the range of 113 to 115 °C.

The compound `CCC(Oc1ccc(Cl)cc1)C(=O)OC1CC(O)C=C2C=CC(C)C(CCC3CC(O)CC(=O)O3)C21` (mixture of isomers) came in with a melting point of 140 to 142 °C.

`CN(c1cc(OC(F)(F)F)cc2cc(C3=NCC(CCO)S3)[nH]c12)S(=O)(=O)c1cccs1` (stereo not drawn) displayed a melting point of 152 to 153 °C.

Regarding `NC(=O)c1ccc(OCCCC(=O)O)cc1`, the melting point was in the range of 162 to 164 °C.

Take `CCS(=O)(=O)N(C)C1c2cc(F)c(Cl)cc2OC(C)(C)C1O` (stereo not drawn): the melting point is 188 to 190 °C.

In turn, `CCOC(=O)CN1C(=O)N(c2ccc(C)cc2)C2(CCCCC2)C1=O` had a melting point of 132 °C.

In turn, `COc1ccc2cc(CCCCC(O)CCc3cccnc3)ccc2c1` (stereo not drawn) came in with a melting point of 83 to 84 °C.

On to `Cc1ccc(-c2nn(C(C)(C)C(=O)N(C)C)cc2C)c(C)c1`, for which the melting point lay in the range of 110 to 112 °C.

With `CCOC(=O)C1=C(C)NC(C)=C([N+](=O)[O-])C1c1cccnc1` (stereo not drawn), the melting point came out at 264 °C.

As to `CCSC1CC(=O)CC(SCC)C1(O)c1ccccc1` (stereo not drawn), the melting point is 49 to 50 °C.

Compound `COCc1sc(C(C)(O)c2ccsc2)nc1C` (stereo not drawn) registered a melting point of 71 to 73 °C.

`CCCCc1nc(Cl)c(C(=O)NC)n1Cc1ccc2oc(-c3ccccc3NS(=O)(=O)C(F)(F)F)c(Br)c2c1` displayed a melting point of 89 to 92 °C.

`O=C(NC1CCN(CCc2ccccc2)CC1)c1c[nH]c2ccc(F)cc12` came in with a melting point of 238 to 240 °C.

On to `CCOC(=O)C1=C2COCCN2C(C)=C(C(=O)OC)C1c1ccccc1Cl` (stereo not drawn), for which the melting point was in the range of 141 to 143 °C.

`CC1(C)Oc2cc3nonc3cc2C(N2CCCC2=O)C1O` (stereo not drawn) came in with a melting point of 242 to 244 °C.

Regarding `CS(=O)(=O)Nc1cc([N+](=O)[O-])ccc1OC1CCCCC1`, the melting point was in the range of 105 to 106 °C.

On to `CCc1ccc2c(c1)C=Cc1cc(C)ccc1C2c1cn(-c2ccnc(NCC(=O)Nc3nnn[nH]3)n2)c(=O)[nH]c1=O` (stereo not drawn), for which the melting point lay in the range of 220 to 225 °C.

In turn, `COC1=C(OC)C(=O)C(CCCCCCCCCCCCCCCCCCCCCCO)=C(C)C1=O` returned a melting point of 89 to 90.5 °C.

The compound `CON(C)C(=O)c1cc(N)c(F)cc1Cl` came in with a melting point of 118 °C.

`CC(=O)C1CCC2C3CCC4CC(O)(C#Cc5ccccn5)CCC4(C)C3CCC12C` (stereo not drawn) yielded a melting point of 192 to 195 °C.

Turning to `COc1ccc(C2=NCc3nncn3-c3ccc(Cl)cc32)cc1`, the melting point was in the range of 216 to 217 °C.

The compound `CCOC(=O)N1CCC(=C2c3ccc(Cl)cc3C=Cc3cccnc32)CC1` showed a melting point of 155 to 156 °C.

As for `O=C1C(=CO)C(c2ccc(Cl)cc2Cl)c2c(Cl)cc(Cl)cc21` (stereo not drawn), the melting point lay in the range of 189 to 191 °C.

`COc1cc(C(=O)N2CCN(C(=O)OC(C)(C)C)C(C=O)C2)cc(OC)c1OC` (stereo not drawn): the melting point is 160 to 161 °C.

`Fc1cccc(C2OC3(CCN(Cc4ccccc4)CC3)N3CCCCC23)c1` (stereo not drawn): the melting point lay within 113 to 115 °C.

`O=C(O)Cc1ccc(CCl)cc1` yielded a melting point of 147 to 149 °C.

`O=S(=O)(c1ccc(Br)s1)N(CCO)CCO` came in with a melting point of 70 °C.

`N#CC(c1ccc(Cl)cc1)c1ccc(-n2ncc(=O)[nH]c2=O)cc1Cl` (stereo not drawn) registered a melting point of 197 °C.

Compound `N=C(N)c1ccc(-c2cnc(-c3ccc(C(=N)N)cc3)nc2)cc1` displayed a melting point of over 300 °C.

As to `CNC(=O)Cc1cccc(C(=O)c2ccccc2)c1N`, the melting point is 145 to 146 °C.

`NC(=O)COc1cccc(CCNS(=O)(=O)c2ccc(Cl)cc2)c1` yielded a melting point of 113 °C.

As for `O=C(Nc1ccc(-n2nc(C(F)(F)F)cc2C(F)(F)F)cc1)c1ccc(F)cc1F`, the melting point was 126 to 128 °C.

`CN(C)C(=O)Nc1nsnc1-c1c(Cl)cccc1Cl` had a melting point of 100 to 103 °C.

Regarding `Cc1nn(-c2ccccn2)c2[nH]c3ccccc3c(=S)c12`, the melting point lay in the range of 252 to 253 °C.

The compound `CCC(=O)C(O)(Cc1ccc(Cl)cc1Cl)c1cccnc1` (stereo not drawn) yielded a melting point of 145 to 146 °C.

The compound `CO/C(=C\C=C\c1cc2cc(Br)ccc2[nH]1)C(=O)O` gave a melting point of 208 to 210 °C.

With `COC=C1CCC(c2ccc(C(=O)OC)cc2)CC1` (stereo not drawn), the melting point is 58 °C.

On to `O=C(O)C(O)N1C(=O)CCN1c1cccc(C(F)(F)F)c1` (stereo not drawn), for which the melting point fell in the range of 142 to 144 °C.

On to `FC(F)c1cc(-c2cccc(C(F)(F)F)c2)nc2c(I)cnn12`, for which the melting point amounted to 130 °C.

Take `Cc1nc2c(N)nc3c(c2n1CC(C)C)CCNC3`: the melting point lay within 226 to 230 °C.

`O=C(CCc1ccc2c(c1)CCCC2)N1C(=O)OC[C@@H]1Cc1ccccc1` displayed a melting point of 92 to 93 °C.

On to `CC(C)=CCOc1c(-c2ccc(S(C)(=O)=O)cc2)cnn(-c2cccc(Cl)c2)c1=O`, for which the melting point was in the range of 113 to 115 °C.

In the case of `CN(C)CCNc1nc2cc(Cl)c(Cl)cc2nc1-c1ccccn1`, the melting point lay within 95 to 97 °C.

On to `CCCCc1oc2ccccc2c1-c1ncc(-c2ccc3cc(OC(Cc4ccccc4)C(=O)O)ccc3c2)o1` (stereo not drawn), for which the melting point lay within 174 to 177 °C.

In turn, `Cc1nc(N2CCN(Cc3ccc(C(F)(F)F)cc3)C2=O)sc1-c1cnco1` came in with a melting point of 160 to 162 °C.

For `CC(C)(C)OC(=O)NCC1CCN(CC2(C(=O)O)CCCC2)CC1`, the melting point was determined as 150 °C.

Turning to `O=c1[nH]c2cc3ccc(C(F)(F)F)cc3nc2[nH]1`, the melting point is over 250 °C.

`CCOC(=O)c1cn(C2CC2)c2c(F)c(Br)c(F)c(F)c2c1=O` came in with a melting point of 187 to 189 °C.

As for `O=C(Nc1ccccc1C(=O)N1CCCCC1)N[C@@H](Cc1ccc(NC(=O)c2c(Cl)cccc2Cl)cc1)C(=O)O`, the melting point is 191 °C.

`CN1Cc2c(C=O)ncn2-c2ccccc2C1=O` returned a melting point of 202 to 203 °C.
